Measured values: US9668951B2, “Pharmaceutical compositions comprising renewably-based biodegradable 1,3-propanediol” (DuPont Tate & Lyle Bio Products Company, LLC, priority 2006, dated 2017)

Experiments:
[1] = system: human skin; test: human skin patch test, 5, 25 and 50% (induction and challenge phases); assay type: in vivo; conditions: diluted with D.I. water to 5%, 105 panelists completed
Description: (§1) Based on these studies PDO is not expected to be a skin irritant or sensitizer in humans.
The purpose of this study was to determine the potential of biologically-derived 1,3-propanediol, diluted to concentrations of 5%, 25%, and 50%, to cause irritation or delayed contact hypersensitivity in humans. The method employed in carrying out this test, described below, was similar to that described in “Appraisal of the Safety of Chemicals in Foods, Drugs and Cosmetics” by J. H. Drake and published by the Association of Food and Drug Officials of the United States, incorporated herein by reference.
Test Panel: The test involved the application of the test article to the upper arms of a group of 112 volunteer panelists. The panelists ranged from 16 to 71 years of age. One hundred and five panelists completed the study. Prior to the initiation of the study, all panelists were in good general health and free of any visible skin disease or anomaly in the area to be patched. Each panelist was required to read, understand and sign an informed consent statement. […]

[2] = system: human skin; test: second human skin patch test; assay type: in vivo
Description: as §1

Structure (SMILES)	skin irritant, fatiguing agent, or sensitizing agent [1]	dermal irritation or sensitization reactions ([2]; 25, 50, and 75% PDO at pH 7, or 75% PDO at pH 4 and 9)	patch test irritation of human skin ([2]; 25, 50, and 75% (pH 7))
OCCCO [PDO, 1,3-propanediol]	not to be a skin irritant, fatiguing agent, or sensitizing agent	did not produce any clinically significant dermal irritation or sensitization reactions	
CC(O)CO (stereo not drawn) [propylene glycol, reference compound]			patch test irritants and cumulative irritants
